Data published in patent US4244967A, “Antiphlogistic pharmaceutical compositions containing a phenylethanolamine and methods of use” (priority 1978, dated 1981).
Several values for one entry are separate records, joined by “and”; a condition that tells them apart may be missing. Identical values can stand only once.

Assays:
[1] = long-lasting in vivo activity compared with other β-mimetics; details: no data given
[2] = enteral absorption; format: in vivo; details: no data given
[3] = system: human polymorphnuclear leucocytes (PMN); experiment: Inhibition of the release of lysosomal β-glucuronidase from human polymorphnuclear leucocytes (PMN) during phagocytosis of zymosan particles; format: cell-based; details: in vitro; for IC20: Homo sapiens, Leucocyte, 20% inhibition of release (EC20, not EC50), zymosan-phagocytosis, Fieller confidence limits given
Protocol: The compounds were tested for their inhibitory effect on the release of lyosomal enzymes (β-glucuronidase was the lysomal marker-enzyme) from human polymorphnuclear leucocytes (PMN) during the phagocytosis of zymosan particles. According to WEISSMANN, the release of lyosomal enzymes in the course of the phagocytosis of immune complexes plays a significant role for the "self perpetuation" in rheumatoid arthritis. The test was performed according to the method of WEISSMANN et al. [J. Exp. Med. 134, 149s-165s (1971)]. The buffer system and the incubation times were changed, the number of the zymosan particles and the number of PMN was standardized. From the inhibiting effects produced by the test substance in comparison with the zymosan control, an EC20 with confidence limits according to FIELLER (Quart. J. Pharm. Pharmacol. 17, 117-123 (1944) was calculated by linear regression analysis according to LINDER [Stat. Methoden, 4th Ed., 148-162, published by Birkhauser, Basel, Switzerland (1964)] as the end concentration of the test substance that produced a 20% inhibition of the release of lysosomal β-glucuronidasefrom human polymorphnuclear leucocytes in vitro during the zymosan-phagocytosis.
Effect on the release of lysosomal β-glucuronidase from human polymorph-nucleic leucocytes under zymosan-phagocytosis.

enteral absorption [2]	Compound	in vivo activity, duration [1]	IC20 [3]	stronger inhibitor of the release of lysosomal enzymes than terbutaline sulfate ([3]; relative to terbutaline sulfate (B))
very good	CCOC(=O)Nc1c(F)cc(C(O)CNC(C)(C)C)cc1C#N.Cl (centres unmarked) [Compound A, 1-(4-ethoxycarbonylamino-3-cyano-5-fluoro-phenyl)-2-tert. butylamino-ethanol hydrochloride]	long-lasting	130 nM and 0.0468 µg/mL	about 18 times stronger
	CC(C)(C)NCC(O)c1cc(O)cc(O)c1 (centres unmarked) [B, reference compound]		2.4 µM and 0.658 µg/mL	
